Experiment: Anticancer human tumor 997537-175-T-J1-PDC patient-derived colon adenocarcinoma cell line growth inhibition [POLQ]
Details: 997537-175-T-J1-PDC complex spheroid viability, combination with POLQ inhibitors; for IC50: curve of first compound; for viability, T/C: stronger effect = lower value
Summary of the method: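 Patient-derived tumour cells were co-cultured with HUVEC and mesenchymal stem cells as multicellular spheroids at 37 °C. They were treated with POLQ inhibitors (novobiocin, ART-558, RP6685) alone or combined with other agents. Top concentrations were at or near clinical Cmax (otherwise 10 microM; SN-38 at 1 microM), decreasing in half-log steps.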

[1] = second compound 0.0316 µM, first compound 0.0316 µM
[2] = second compound 0.0316 µM, first compound 0.1 µM
[3] = second compound 0.0316 µM, first compound 0.316 µM
[4] = second compound 0.0316 µM, first compound 1 µM
[5] = second compound 0.0316 µM, first compound 3.16 µM
[6] = second compound 0.0316 µM, first compound 10 µM
[7] = second compound 0.1 µM, first compound 0.0316 µM
[8] = second compound 0.1 µM, first compound 0.1 µM
[9] = second compound 0.1 µM, first compound 0.316 µM
[10] = second compound 0.1 µM, first compound 1 µM
[11] = second compound 0.1 µM, first compound 3.16 µM
[12] = second compound 0.1 µM, first compound 10 µM
[13] = second compound 0.316 µM, first compound 0.0316 µM
[14] = second compound 0.316 µM, first compound 0.1 µM
[15] = second compound 0.316 µM, first compound 0.316 µM
[16] = second compound 0.316 µM, first compound 1 µM
[17] = second compound 0.316 µM, first compound 3.16 µM
[18] = second compound 0.316 µM, first compound 10 µM
[19] = second compound 1 µM, first compound 0.0316 µM
[20] = second compound 1 µM, first compound 0.1 µM
[21] = second compound 1 µM, first compound 0.316 µM
[22] = second compound 1 µM, first compound 1 µM
[23] = second compound 1 µM, first compound 3.16 µM
[24] = second compound 1 µM, first compound 10 µM
[25] = second compound 3.16 µM, first compound 0.0316 µM
[26] = second compound 3.16 µM, first compound 0.1 µM
[27] = second compound 3.16 µM, first compound 0.316 µM
[28] = second compound 3.16 µM, first compound 1 µM
[29] = second compound 3.16 µM, first compound 3.16 µM
[30] = second compound 3.16 µM, first compound 10 µM
[31] = second compound 10 µM, first compound 0.0316 µM
[32] = second compound 10 µM, first compound 0.1 µM
[33] = second compound 10 µM, first compound 0.316 µM
[34] = second compound 10 µM, first compound 1 µM
[35] = second compound 10 µM, first compound 3.16 µM
[36] = second compound 10 µM, first compound 10 µM
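Note: luminescence signal used as a surrogate for viable cells; spheroids exposed to drugs for seven days before readout.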

Compound: CC(C)n1c(=O)n(C)c2cnc3cc(F)c(-c4ccc(OCCCN5CCCCC5)nc4)cc3c21 + Nc1ccc(C#CCN(C(=O)Cc2ncc(C(F)(F)F)cc2C(F)(F)F)c2ccc(F)cc2)nn1
- IC50 (second compound 0.0316 µM): > 10 µM
- IC50 (second compound 0.1 µM): > 10 µM
- IC50 (second compound 0.316 µM): > 10 µM
- IC50 (second compound 1 µM): > 10 µM
- IC50 (second compound 3.16 µM): > 10 µM
- IC50 (second compound 10 µM): > 10 µM
- viability, T/C [1]: 96%
- viability, T/C [2]: 107%
- viability, T/C [3]: 92.5%
- viability, T/C [4]: 98%
- viability, T/C [5]: 85.5%
- viability, T/C [6]: 91.3%
- viability, T/C [7]: 98.2%
- viability, T/C [8]: 111%
- viability, T/C [9]: 113%
- viability, T/C [10]: 105%
- viability, T/C [11]: 97.2%
- viability, T/C [12]: 77.4%
- viability, T/C [13]: 97%
- viability, T/C [14]: 91.1%
- viability, T/C [15]: 107%
- viability, T/C [16]: 89.9%
- viability, T/C [17]: 107%
- viability, T/C [18]: 90.2%
- viability, T/C [19]: 105%
- viability, T/C [20]: 107%
- viability, T/C [21]: 92.6%
- viability, T/C [22]: 89.4%
- viability, T/C [23]: 105%
- viability, T/C [24]: 107%
- viability, T/C [25]: 97.3%
- viability, T/C [26]: 104%
- viability, T/C [27]: 104%
- viability, T/C [28]: 83.3%
- viability, T/C [29]: 97.8%
- viability, T/C [30]: 98.7%
- viability, T/C [31]: 102%
- viability, T/C [32]: 103%
- viability, T/C [33]: 97.8%
- viability, T/C [34]: 101%
- viability, T/C [35]: 96.2%
- viability, T/C [36]: 81.5%

Compound: CC1COCCN1c1cc(-c2ccnn2C)c2ccnc(-c3ccn[nH]3)c2n1 (stereo unspecified) + Nc1ccc(C#CCN(C(=O)Cc2ncc(C(F)(F)F)cc2C(F)(F)F)c2ccc(F)cc2)nn1
- IC50 (second compound 0.0316 µM): > 10 µM
- IC50 (second compound 0.1 µM): 3.16 µM
- IC50 (second compound 0.316 µM): > 10 µM
- IC50 (second compound 1 µM): > 10 µM
- IC50 (second compound 3.16 µM): 3.16 µM
- IC50 (second compound 10 µM): 0.305 µM
- viability, T/C [1]: 103%
- viability, T/C [2]: 83.6%
- viability, T/C [3]: 58.3%
- viability, T/C [4]: 49.4%
- viability, T/C [5]: 36.8%
- viability, T/C [6]: 71.6%
- viability, T/C [7]: 101%
- viability, T/C [8]: 92.2%
- viability, T/C [9]: 38.2%
- viability, T/C [10]: 49.5%
- viability, T/C [11]: 48.3%
- viability, T/C [12]: 69.6%
- viability, T/C [13]: 99.1%
- viability, T/C [14]: 90.6%
- viability, T/C [15]: 51.4%
- viability, T/C [16]: 42.5%
- viability, T/C [17]: 52%
- viability, T/C [18]: 65.8%
- viability, T/C [19]: 93.1%
- viability, T/C [20]: 76.1%
- viability, T/C [21]: 39.4%
- viability, T/C [22]: 75.2%
- viability, T/C [23]: 50%
- viability, T/C [24]: 53.4%
- viability, T/C [25]: 99.2%
- viability, T/C [26]: 84.3%
- viability, T/C [27]: 36%
- viability, T/C [28]: 28.6%
- viability, T/C [29]: 52.5%
- viability, T/C [30]: 82%
- viability, T/C [31]: 83.5%
- viability, T/C [32]: 75.3%
- viability, T/C [33]: 39.2%
- viability, T/C [34]: 32.5%
- viability, T/C [35]: 57.5%
- viability, T/C [36]: 67.5%

Compound: CC1COCCN1c1cc(C2(S(C)(=N)=O)CC2)nc(-c2ccnc3[nH]ccc23)n1 (stereo unspecified) + Nc1ccc(C#CCN(C(=O)Cc2ncc(C(F)(F)F)cc2C(F)(F)F)c2ccc(F)cc2)nn1
- IC50 (second compound 0.0316 µM): > 10 µM
- IC50 (second compound 0.1 µM): 7.51 µM
- IC50 (second compound 0.316 µM): > 10 µM
- IC50 (second compound 1 µM): > 10 µM
- IC50 (second compound 3.16 µM): 6.51 µM
- IC50 (second compound 10 µM): > 10 µM
- viability, T/C [1]: 115%
- viability, T/C [2]: 107%
- viability, T/C [3]: 86.7%
- viability, T/C [4]: 96.5%
- viability, T/C [5]: 87.1%
- viability, T/C [6]: 57.2%
- viability, T/C [7]: 105%
- viability, T/C [8]: 105%
- viability, T/C [9]: 81.3%
- viability, T/C [10]: 95.4%
- viability, T/C [11]: 65.5%
- viability, T/C [12]: 43.9%
- viability, T/C [13]: 109%
- viability, T/C [14]: 103%
- viability, T/C [15]: 97.5%
- viability, T/C [16]: 79.2%
- viability, T/C [17]: 79.4%
- viability, T/C [18]: 71.7%
- viability, T/C [19]: 97.8%
- viability, T/C [20]: 108%
- viability, T/C [21]: 105%
- viability, T/C [22]: 81%
- viability, T/C [23]: 63.9%
- viability, T/C [24]: 52%
- viability, T/C [25]: 93.9%
- viability, T/C [26]: 91.2%
- viability, T/C [27]: 107%
- viability, T/C [28]: 92.4%
- viability, T/C [29]: 66.9%
- viability, T/C [30]: 40%
- viability, T/C [31]: 94.9%
- viability, T/C [32]: 94.6%
- viability, T/C [33]: 94.6%
- viability, T/C [34]: 81.7%
- viability, T/C [35]: 47%
- viability, T/C [36]: 55.8%
